Assay results: patent US12115247B2, “Structured orodispersible films” (LTS LOHMANN THERAPIE-SYSTEME AG, priority 2017, dated 2024)

Assay: Loading of porous orodispersible film with anthraquinone suspension (coating cycles)
Format: physicochemical
Description: For these tests an anthraquinone suspension (x50=400 nm) was used. These contained, in addition to the anthraquinone, also HPC as stabiliser in a concentration of cHPC=0.25 (in relation to the total quantity of anthraquinone in the suspension). The concentration of the suspension was varied in a range of from 0.05 to 0.2, and the suspension was applied between one and five times to the film. The suspension was applied to the film surface via an application nozzle with a volume of […] at a rate of 220 mm/min. The film used for the tests was a film with cHPC=0.28, as described in Example 1. The loading with anthraquinone was determined for each of the obtained films.

O=C1c2ccccc2C(=O)c2ccccc21 [anthraquinone]
anthraquinone loading (film cHPC=0.28, anthraquinone concentration of 0.2, five coating cycles): 4.9 mg/cm^2
highest loading (film cHPC=0.28, anthraquinone concentration of 0.2, five coating cycles, suspension also contains HPC stabiliser): 6.1 mg/cm^2
maximum active ingredient loading (per standard orodispersible film of 6 cm^2): approximately 30 mg
